Converted amounts (≈) assume the structure as drawn. Where two headings read alike, the source gives them in different places.
Experiments:
Type in all cases: cell-based
[1] = system: Proteus vulgaris 0X 19US; test: MIC against bacteria (Table I), strain (2); settings: 0X19US; (2) Proteus vulgaris 0X 19US; read-out: MIC
Text: (§1) Now, for illustrating the excellent pharmacological effects of the compounds of this invention, the values of MIC (γ/ml.) of the compounds against various bacteria are shown in Table 1, in which the compounds of this invention used are shown by example numbers.
(2) Proteus vulgaris 0X 19US

[2] = system: Proteus mirabilis IXM OM-19; test: MIC against bacteria (Table I), strain (3); settings: IXMOM19; (3) Proteus mirabilis IXM OM-19; read-out: MIC
Text: as §1
(3) Proteus mirabilis IXM OM-19

[3] = system: Pseudomonas aeruginosa 99 (Gentamycin resistant); test: MIC against bacteria (Table I), strain (5)
Text: as §1
(5) Pseudomonas aeruginosa 99 (Gentamycin resistant)

[4] = system: Psuedomonas ovalis IMA 1002; test: MIC against bacteria (Table I), strain (6)
Text: as §1
(6) Psuedomonas ovalis IMA 1002

[5] = system: Escherichia coli kauffmann 0-1; test: MIC against bacteria (Table I), strain (7)
Text: as §1
(7) Escherichia coli kauffmann 0-1

[6] = system: Klebsiella pneumoniae ATCC 10031; test: MIC against bacteria (Table I), strain (8); settings: ATCC10031
Text: as §1
(8) Klebsiella pneumoniae ATCC 10031

[7] = system: Salmonella typhi H901 W; test: MIC against bacteria (Table I), strain (9); settings: Salmonella enterica, TYPHI
Text: as §1
(9) Salmonella typhi H901 W

[8] = system: Salmonella enteritidis; test: MIC against bacteria (Table I), strain (10); settings: Salmonella enterica
Text: as §1
(10) Salmonella enteritidis

[9] = system: Shigella flexneri 2a 1675; test: MIC against bacteria (Table I), strain (11); settings: 2A1675
Text: as §1

[10] = system: Shigella sonnei II 37148; test: MIC against bacteria (Table I), strain (12); settings: II37148
Text: as §1

[11] = system: Bacillus megatherium 10778; test: MIC against bacteria (Table I), strain (13)
Text: as §1

[12] = system: Bacillus subtilis ATCC 6633; test: MIC against bacteria (Table I), strain (14); settings: ATCC6633
Text: as §1
(14) Bacillus subtilis ATCC 6633

[13] = system: Micrococcus flavus ATCC 10240; test: MIC against bacteria (Table I), strain (15); settings: ATCC10240
Text: as §1
(15) Micrococcus flavus ATCC 10240

[14] = system: Staphylococcus aureus 209P; test: MIC against bacteria (Table I), strain (16)
Text: as §1
(16) Staphylococcus aureus 209P

[15] = system: Staphylococcus Shimanishi; test: MIC against bacteria (Table I), strain (17); settings: Staphylococcus
Text: as §1
(17) Staphylococcus Shimanishi

[16] = system: Staphylococcus Onuma; test: MIC against bacteria (Table I), strain (18)
Text: as §1
(18) Staphylococcus Onuma

[17] = (5) Pseudomonas aeruginosa 99 (Gentamycin resistant), read-out: MIC
[18] = (6) Psuedomonas ovalis IMA 1002, read-out: MIC
[19] = (8) Klebsiella pneumoniae ATCC 10031, read-out: MIC
[20] = (13) Bacillus megatherium 10778, read-out: MIC
[21] = (14) Bacillus subtilis ATCC 6633, read-out: MIC
[22] = (16) Staphylococcus aureus 209P, read-out: MIC
[23] = (18) Staphylococcus Onuma, read-out: MIC
[24] = (10) Salmonella enteritidis, read-out: MIC
[25] = (11) Shigella flexneri 2a 1675, read-out: MIC
[26] = (12) Shigella sonnei II 37148, read-out: MIC
[27] = (15) Micrococcus flavus ATCC 10240, read-out: MIC

Structure (SMILES) | MIC [1] | MIC [2] | MIC [3, 17] | MIC [4, 18] | MIC ([5]; Escherichia coli) | MIC [6, 19] | MIC [7] | MIC ([8]; ENTERITIDIS) | MIC [11, 20] | MIC [12, 21] | MIC ([13]; Micrococcus flavus) | MIC [14, 22] | MIC [15] | MIC [16, 23] | MIC [8, 24] | MIC [9, 25] | MIC [10, 26] | MIC [13, 27] | MIC ([14]; Staphylococcus aureus, 209P) | MIC ([11]; Bacillus, 10778) | further results
O=C(O)CSc1nnc(SCC2=C(C(=O)O)N3C(=O)[C@@H](NC(=O)[C@H](NC(=O)c4csccc4=O)c4ccc(O)cc4)[C@H]3SC2)s1 [Example 31, 7-[D-α-(4-thiopyrone-3-carboxamido)-α-p-hydroxyphenylacetamido]-3-[5-carboxymethylthio-1,3,4-thiadiazol-2-yl]thiomethyl-Δ^3-cephem-4-carboxylic acid] | 1.56 µg/mL (≈ 2.2 µM) | 0.39 µg/mL (≈ 0.551 µM) | 50 µg/mL (≈ 70.6 µM) | 50 µg/mL (≈ 70.6 µM) | 3.13 µg/mL (≈ 4.42 µM) | 6.25 µg/mL (≈ 8.83 µM) | 0.39 µg/mL (≈ 0.551 µM) | 0.39 µg/mL (≈ 0.551 µM) | 0.39 µg/mL (≈ 0.551 µM) | 0.39 µg/mL (≈ 0.551 µM) | 3.13 µg/mL (≈ 4.42 µM) | 0.39 µg/mL (≈ 0.551 µM) | 3.13 µg/mL (≈ 4.42 µM) | 6.25 µg/mL (≈ 8.83 µM) |  |  |  |  |  |  | MIC ([9]; Shigella flexneri): 0.78 µg/mL (≈ 1.1 µM); MIC ([10]; Shigella sonnei): 3.13 µg/mL (≈ 4.42 µM)
Cc1ncc(C(=O)N[C@@H](C(=O)N[C@@H]2C(=O)N3C(C(=O)O)=C(CSc4nnc(SCC(=O)O)s4)CS[C@H]23)c2ccccc2)c(O)n1 [Example 20, 7-[D-α-(4-hydroxy-2-methylpyrimidin-5-ylcarboxamido)-α-phenylacetamido]-3-(5-carboxymethylthio-1,3,4-thiadiazol-2-yl)thiomethyl-Δ^3-cephem-4-carboxylic acid] | < 0.09 µg/mL | 0.39 µg/mL (≈ 0.565 µM) | 25 µg/mL (≈ 36.2 µM) | 50 µg/mL (≈ 72.5 µM) | 12.5 µg/mL (≈ 18.1 µM) | 25 µg/mL (≈ 36.2 µM) | 12.5 µg/mL (≈ 18.1 µM) |  | 1.56 µg/mL (≈ 2.26 µM) | 3.13 µg/mL (≈ 4.54 µM) | 6.25 µg/mL (≈ 9.06 µM) | 3.13 µg/mL (≈ 4.54 µM) | 12.5 µg/mL (≈ 18.1 µM) |  | 3.13 µg/mL (≈ 4.54 µM) | 6.25 µg/mL (≈ 9.06 µM) | 12.5 µg/mL (≈ 18.1 µM) |  |  |  | MIC ([16]; Staphylococcus): 12.5 µg/mL (≈ 18.1 µM)
O=C(O)CCCc1nnc(SCC2=C(C(=O)O)N3C(=O)[C@@H](NC(=O)[C@H](NC(=O)c4cnccc4O)c4ccccc4)[C@H]3SC2)s1 [Example 35, 7-[D-α-(4-hydroxynicotinoylamido)-α-phenylacetamido]-3-[5-(3-carboxypropyl)-1,3,4-thiadiazol-2yl]-thiomethyl-Δ^3 cephem-4-carboxylic acid] | 50 µg/mL (≈ 74.5 µM) | 0.78 µg/mL (≈ 1.16 µM) |  |  |  |  | 1.56 µg/mL (≈ 2.33 µM) |  | 0.78 µg/mL (≈ 1.16 µM) | 0.78 µg/mL (≈ 1.16 µM) |  |  |  | 12.5 µg/mL (≈ 18.6 µM) | 0.78 µg/mL (≈ 1.16 µM) | 1.56 µg/mL (≈ 2.33 µM) | 6.25 µg/mL (≈ 9.32 µM) | 3.13 µg/mL (≈ 4.67 µM) | 1.56 µg/mL (≈ 2.33 µM) |  | MIC ([3]; Pseudomonas aeruginosa): 6.25 µg/mL (≈ 9.32 µM); MIC [4]: 6.25 µg/mL (≈ 9.32 µM); MIC ([5]; (7) Escherichia coli kauffmann 0-1, read-out: MIC): 3.13 µg/mL (≈ 4.67 µM); MIC ([6]; Klebsiella pneumoniae): 6.25 µg/mL (≈ 9.32 µM)
Cc1cc(O)c(C(=O)N[C@@H](C(=O)N[C@@H]2C(=O)N3C(C(=O)O)=C(CSc4nnc(CC(=O)O)s4)CS[C@H]23)c2ccccc2)cn1 [Example 38, 7-[D-α-(4-hydroxy-6-methylnicotinoylamido)-α-phenylacetamido]-3-(5-carboxymethyl-1,3,4-thiadiazol-2-yl)-thiomethyl-Δ^3-cephem-4-carboxylic acid] |  | 0.78 µg/mL (≈ 1.19 µM) | 12.5 µg/mL (≈ 19 µM) | 50 µg/mL (≈ 76.1 µM) | 3.13 µg/mL (≈ 4.77 µM) | 12.5 µg/mL (≈ 19 µM) | 1.56 µg/mL (≈ 2.38 µM) | 1.56 µg/mL (≈ 2.38 µM) |  |  |  |  |  | 12.5 µg/mL (≈ 19 µM) |  | 1.56 µg/mL (≈ 2.38 µM) | 3.13 µg/mL (≈ 4.77 µM) | 12.5 µg/mL (≈ 19 µM) | 3.13 µg/mL (≈ 4.77 µM) | 1.56 µg/mL (≈ 2.38 µM) | MIC ([12]; Bacillus subtilis): 1.56 µg/mL (≈ 2.38 µM)
Cc1cc(O)c(C(=O)N[C@@H](C(=O)N[C@@H]2C(=O)N3C(C(=O)O)=C(CSc4nnc(CCCC(=O)O)s4)CS[C@H]23)c2ccccc2)cn1 [Example 36, 7-[D-α-(4-hydroxy-6-methylnicotinoylamido)-α-phenylacetamido]-3-[5-(3-carboxypropyl)-1,3,4-thiadiazol-2-yl]thiomethyl-Δ^3-cephem-4-carboxylic acid] | 100 µg/mL (≈ 146 µM) | 0.39 µg/mL (≈ 0.57 µM) | 6.25 µg/mL (≈ 9.13 µM) | 25 µg/mL (≈ 36.5 µM) | 1.56 µg/mL (≈ 2.28 µM) | 6.25 µg/mL (≈ 9.13 µM) | 1.56 µg/mL (≈ 2.28 µM) | 1.56 µg/mL (≈ 2.28 µM) |  |  |  |  |  | 12.5 µg/mL (≈ 18.3 µM) |  | 0.78 µg/mL (≈ 1.14 µM) | 3.13 µg/mL (≈ 4.57 µM) | 6.25 µg/mL (≈ 9.13 µM) | 1.56 µg/mL (≈ 2.28 µM) | 0.78 µg/mL (≈ 1.14 µM) | MIC ([12]; Bacillus subtilis): 1.56 µg/mL (≈ 2.28 µM)
